From ChEMBL document CHEMBL5727751, “Use of aza-tryptanthrin derivatives as inhibitors of IDO1 and/or TDO” (2020)

What follows are compounds tested against Indoleamine 2,3-dioxygenase 1 (Homo sapiens, UniProt P14902) (assay: Indoleamine-2,3-Dioxygenase 1 Inhibitory Activity: Experimental method: IDO-1 can oxidatively cleave the indole ring of tryptophan to form N-formylkynurenine. Referring to the method in the literature (Eddy W. Yue, et al. J. Med. Chem. 2009, 52, 7364-7367), 20 nM IDO-1, 2 mM D-tryptophan, 20 mM ascorbic acid, […] methyl blue and 0.2 mg/mL antioxidant enzyme were sequentially added to 50 mM potassium phosphate buffer at room temperature. Due to the formation of N-formylkynurenine, the reaction rate was recorded by the increasing absorbance of the solution at 321 nm. IC50 values were calculated using Prism GraphPad software.).
Sequence of Indoleamine 2,3-dioxygenase 1 (P14902 whole entry): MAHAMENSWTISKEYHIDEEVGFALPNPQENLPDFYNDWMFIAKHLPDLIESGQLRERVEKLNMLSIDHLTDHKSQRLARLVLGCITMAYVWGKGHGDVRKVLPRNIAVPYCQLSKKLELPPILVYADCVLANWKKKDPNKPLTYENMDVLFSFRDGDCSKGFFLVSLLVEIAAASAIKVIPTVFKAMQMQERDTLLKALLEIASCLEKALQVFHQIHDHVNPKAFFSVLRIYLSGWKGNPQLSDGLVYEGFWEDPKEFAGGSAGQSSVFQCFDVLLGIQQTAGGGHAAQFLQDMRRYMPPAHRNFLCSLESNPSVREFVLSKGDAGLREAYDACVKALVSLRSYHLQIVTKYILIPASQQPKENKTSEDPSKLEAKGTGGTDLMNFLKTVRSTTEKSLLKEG
`O=C1c2cc(F)ccc2-n2c1nc1ncccc1c2=O` gave an IC50 of 1 to 100 nM.
In the case of `O=C1c2cc(Cl)ccc2-n2c1nc1ncccc1c2=O`, the IC50 is reported as 1 to 100 nM.
`O=C1c2cc(OC(F)(F)F)ccc2-n2c1nc1ncccc1c2=O` was tested, and the IC50 was 1 to 100 nM.
In the case of `O=C1c2cc([N+](=O)[O-])ccc2-n2c1nc1ncccc1c2=O`, the IC50 is reported as 1 to 100 nM.
For `CN(C)C(=S)NN=C1c2cc([N+](=O)[O-])ccc2-n2c1nc1ncccc1c2=O`, the IC50 was 1 to 100 nM.
In the case of `CN(C)CCON=C1c2cc([N+](=O)[O-])ccc2-n2c1nc1ncccc1c2=O`, the IC50 is reported as 1 to 100 nM.
`NC(=S)NN=C1c2cc([N+](=O)[O-])ccc2-n2c1nc1ncccc1c2=O` was tested, and the IC50 was 1 to 100 nM.
In the case of `O=C1c2cnccc2-n2c1nc1ncccc1c2=O`, the IC50 is reported as 1 to 100 nM.
For `N=C(N)NN=C1c2cc([N+](=O)[O-])ccc2-n2c1nc1ncccc1c2=O`, the IC50 was 1 to 100 nM.
